Assay results published in patent publication US9695191B2, “Conformationally constrained, fully synthetic macrocyclic compounds” (POLYPHOR AG, priority 2009, dated 2017).
Read-outs that look alike come from different tables or passages of the source.

Experiments:
[1] = molecular target: T1, 5-hydroxytryptamine 2B (5-HT2B) receptor (Homo sapiens, UniProt P41595); assay: Ca2+ assay (FLIPR), 5-hydroxytryptamine 2B (5-HT2B) receptor, agonist mode (percentage activation); format: cell-based
T1 construct: expressed in transfected cells; host or cells: Ca2+ optimized hematopoietic cell lines (rat)
Method: Dose dependent agonist and antagonist activities were determined. Percentage activation and percentage inhibition values were determined.
Percentage activation was determined upon initial addition of the sample compounds followed by 10 minutes incubation at 25° C. Following compound incubation, reference agonists were added at EC80 to determine percentage inhibition.
All handling of ligands were done to ensure proper control throughout the experiments.
HBSS was supplemented with 20 mM HEPES (4-(2-hydroxyethyl)-piperazin-1-ethansulfonic acid) and 2.5 mM Probenecid (Sigma P8761).
GPCR assays were performed using Ca^2+ optimized hematopoietic cell lines (rat) with cultures never exceeding 90% confluency. […] After seeding, the assay plates were incubated for forty-five (45) minutes at room temperature. After room temperature incubation, the assay plates were incubated at 37° C. 5% CO2 for 24 hours prior to assaying.
All GPCR assays were performed using Fluo-8 Ca^2+ dye. Ca^2+ dye was prepared at 1× dye concentration in GPCR assay buffer. […] The plates were incubated for 90 minutes at 30° C. 5% CO2 prior to FLIPR assay.
Compound plates were prepared to add 50 μL/well during the agonist assay mode. During the FLIPR assay, 50 μL/well from the compound plate was diluted 3-fold into the existing 100 μL/well from the dye loading step. Therefore all compounds were prepared as 3× the final concentration desired in the assay.
After completion of the first single addition assay run, assay plate was removed from the FLIPR Tetra and placed at 25° C. for seven (7) minutes before antagonist assay.
From the FLIPR data, with negative control correction enabled, the maximum statistic for each well was exported and percentage activation relative to Emax control was calculated.

[2] = Metabolic stability, human microsomes; format: in vitro ADME; details: 37° C.; for Metabolic Stability 60 min hum: % of the initial 0 minutes value at 60 min, 10 μM
Method: (§1) Microsomes from a human 50 donor mixed gender pool and 1:1 mixtures of microsomes from CD-1 mouse single-gender pools are purchased from Celsis (Belgium). The enzymatic reaction is performed in a buffer containing an NADPH regeneration system and microsomes with the following end concentrations: 100 mM potassium phosphate buffer (all from Sigma), 1 mg/mL glucose-6-phosphate, 1 mg/mL β-nicotinamide adenine dinucleotide phosphate (NADP), 0.65 mg/mL magnesium chloride, 0.8 units/mL of glucose-6-phosphate dehydrogenase (prediluted with 5 mM citrate buffer), 10 μM compound and 1 mg/ml microsomal protein. Compounds are incubated at 37° C. in duplicates and samples are taken after 0, 20 and 60 minutes. After acetonitrile precipitation (2 volumes) and HPLC/MS/MS analysis metabolic turnover is expressed in % of the initial 0 minutes value and half life T½ (min) is calculated. Verapamil for human and propranolol for mouse are used as reference and are assayed with every experimental set. • F. P. Guengerich, Analysis and Characterization of Enzymes; in: Principles and Methods of Toxicology; A. W. Hayes (Ed.) Raven Press: New York, 1989, 777-813. • R. Singh et al., In vitro metabolism of a potent HIV-protease inhibitor (141W94) using rat, monkey and human liver S9, Rapid Commun. Mass Spectrom. 1996, 10, 1019-1026. 5. Results

[3] = Metabolic stability, CD-1 mouse microsomes; format: in vitro ADME; details: 37° C.; for Metabolic Stability 60 min mouse: % of the initial 0 minutes value at 60 min, 10 μM
Method: as §1

[4] = human, 10 μM
Method: (§2) Example compounds were dissolved in DMSO/H2O 90:10 to a final concentration of 10 mM for plasma stability determination and metabolic stability determination.
(§3) Human plasma (3-5 donors, Blutspendedienst SRK, Basel) and CD-1 mouse plasma (mixed gender pool>50 animals, Innovative Research, CA, USA) are both sodium citrate stabilized. The assay is performed in triplicates at 10 μM compound concentration and 37° C. Samples are taken at 0, 15, 60, and 240 minutes and stopped by precipitation with 2 volumes of acetonitrile. The supernatant is collected, evaporated and reconstituted in a 5% acetonitrile solution to be analyzed by HPLC/MS/MS. The resulting peak area counts are expressed in percent of the 0 value and used to determine the endpoint stability in % and the half life T½ in minutes. In order to monitor assay integrity the degradation of propantheline is assayed with every experimental set

[5] = both, CD-1, mouse, 10 μM
Method: as §2, §3

[6] = Plasma stability, human plasma; details: endpoint stability in % of the 0 value at 240 min, 10 μM, 37° C.
Method: as §2, §3

[7] = Plasma stability, CD-1 mouse plasma; details: endpoint stability in % of the 0 value at 240 min, 10 μM, 37° C.
Method: as §2, §3

[8] = 10 μM compound, 1 mg/ml microsomal protein, sampling up to 60 min

T1 sequence (P41595 whole entry): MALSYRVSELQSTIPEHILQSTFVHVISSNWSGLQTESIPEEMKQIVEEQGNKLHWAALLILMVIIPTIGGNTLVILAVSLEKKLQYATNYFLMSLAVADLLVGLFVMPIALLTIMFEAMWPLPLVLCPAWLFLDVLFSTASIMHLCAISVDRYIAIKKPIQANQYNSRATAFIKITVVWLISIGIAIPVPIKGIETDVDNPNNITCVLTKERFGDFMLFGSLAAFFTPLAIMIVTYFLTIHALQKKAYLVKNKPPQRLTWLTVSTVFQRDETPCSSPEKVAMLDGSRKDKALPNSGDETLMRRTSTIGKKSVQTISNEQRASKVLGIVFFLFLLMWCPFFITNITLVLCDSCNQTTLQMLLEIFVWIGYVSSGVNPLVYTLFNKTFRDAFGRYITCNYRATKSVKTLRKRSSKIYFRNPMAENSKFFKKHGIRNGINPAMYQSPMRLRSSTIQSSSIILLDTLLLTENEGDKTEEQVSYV

SMILES	5-HT2B receptor agonist activity [% activation at 12.5 μM] [1] [%]	Metabolic Stability 60 min hum [2] [%]	Metabolic Stability 60 min mouse [3] [%]	Plasma Stability 240 min hum [4] [%]	Plasma Stability 240 min mouse [5] [%]	Metabolic Stability T ½ [min] hum [2, 8] [min]	Metabolic Stability T ½ [min] mouse [3, 8] [min]	Plasma Stability 240 min hum [6] [%]	Plasma Stability 240 min mouse [7] [%]
CC(=O)N[C@H]1C[C@H]2COc3ccc(F)cc3C(=O)N(C)[C@H](C(=O)NCCc3c[nH]c4ccccc34)CCC(=O)N(C)CC(=O)N2C1 [Ex. 9, (2S,11S,19aS)-2-(acetylamino)-15-fluoro-N-[2-(1H-indol-3-yl)ethyl]-7,12-dimethyl-5,8,13-trioxo-2,3,6,7,8,9,10,11,12,13,19,19a-dodecahydro-1H,5H-pyrrolo[2,1-c][1,4,7,12] benzoxatriazacyclopentadecine-11-carboxamide]	48	20	80	99	93	–	–	–	–
CN1CC(=O)N2C[C@@H](NC(=O)Cc3c[nH]c4ccccc34)C[C@H]2COc2ccc(F)cc2C(=O)N(C)[C@H](C(=O)NCCc2c[nH]c3ccccc23)CCC1=O [Ex. 12, (2S,11S,19aS)-15-fluoro-2-{[2-(1H-indol-3-yl)acetyl]amino}-N-[2-(1H-indol-3-yl)ethyl]-7,12-dimethyl-5,8,13-trioxo-2,3,6,7,8,9,10,11,12,13,19,19a-dodecahydro-1H,5H-pyrrolo [2,1-c][1,4,7,12]benzoxatriazacyclopentadecine-11-carboxamide]	36	7	33	99	100	–	–	–	–
CN(C)CC(=O)N[C@H]1C[C@H]2COc3ccc(F)cc3C(=O)N(C)[C@H](C(=O)NCCc3c[nH]c4ccccc34)CCC(=O)N(C)CC(=O)N2C1 [Ex. 16, (2S,11S,19aS)-2-{[2-(dimethylamino)acetyl]amino}-15-fluoro-N-[2-(1H-indol-3-yl)ethyl]-7,12-dimethyl-5,8,13-trioxo-2,3,6,7,8,9,10,11,12,13,19,19a-dodecahydro-1H,5H-pyrrolo [2,1-c][1,4,7,12]benzoxatriazacyclopentadecine-11-carboxamide]	45	31	79	95	97	–	–	–	–
CN1CC(=O)N2C[C@@H](NC(=O)OC(C)(C)C)C[C@H]2COc2ccc(F)cc2C(=O)N(C)[C@H](C(=O)NCCc2c[nH]c3ccccc23)CCC1=O [Ex. 30, tert-butyl N-[(2S,11S,19aS)-15-fluoro-11-({[2-(1H-indol-3-yl)ethyl]amino}carbonyl)-7,12-dimethyl-5,8,13-trioxo-2,3,6,7,8,9,10,11,12,13,19,19a-dodecahydro-1H,5H-pyrrolo[2,1-c][1,4,7,12]benzoxatriazacyclopentadecin-2-yl]carbamate]	48	2	55	85	100	–	–	–	–
CCCCC(=O)N[C@H]1C[C@H]2COc3ccc(F)cc3C(=O)N(C)[C@@H](C(=O)NCc3ccc4ccccc4c3)CCC(=O)N(C)CC(=O)N2C1 [Ex. 103, (2S,115,19aS)-15-fluoro-7,12-dimethyl-N-(2-naphthylmethyl)-5,8,13-trioxo-2-(pentanoylamino)-2,3,6,7,8,9,10,11,12,13,19,19a-dodecahydro-1H,5H-pyrrolo[2,1-c][1,4,7,12] benzoxatriazacyclopentadecine-11-carboxamide]	–	22	25	–	–	35	36	97	75
